Data taken from the NIST ThermoML archive (doi:10.1021/je8008254).
± gives the expanded uncertainty stated by the source.

Assay: xn = mol fraction of the nth substance listed
Settings: 101 kPa, Liquid

CCCCn1cc[n+](C)c1.N#C[S-] [1-butyl-3-methylimidazolium thiocyanate] + CCCO
Settings | mass density [kg/m3] | viscosity [mPa·s]
298.15 K, x1 = 0.0267 | 819.06 ± 1.2 | 2.26 ± 0.1
298.15 K, x1 = 0.0833 | 854.16 ± 1.1 | 2.87 ± 0.13
298.15 K, x1 = 0.1849 | 903.16 ± 0.88 | 4.27 ± 0.19
298.15 K, x1 = 0.2538 | 930.41 ± 0.78 | 5.34 ± 0.24
298.15 K, x1 = 0.3429 | 959.02 ± 0.69 | 7.42 ± 0.31
298.15 K, x1 = 0.4577 | 988.94 ± 0.64 | 10.9 ± 0.4
298.15 K, x1 = 0.5868 | 1015.47 ± 0.77 | 16.7 ± 0.6
298.15 K, x1 = 0.6791 | 1030.55 ± 0.94 | 20.5 ± 0.8
298.15 K, x1 = 0.805 | 1048.14 ± 1.2 | 25.8 ± 1
298.15 K, x1 = 0.9342 | 1062.97 ± 1.5 | 38.6 ± 1.5
298.15 K, x1 = 1 | 1069.79 ± 1.6 | 51.7 ± 1.2
308.15 K, x1 = 0.0267 | 811.18 ± 1.3 | 1.8 ± 0.08
308.15 K, x1 = 0.0833 | 846.63 ± 1.1 | 2.3 ± 0.11
308.15 K, x1 = 0.1849 | 895.99 ± 0.91 | 3.39 ± 0.15
308.15 K, x1 = 0.2538 | 923.49 ± 0.81 | 4.21 ± 0.19
308.15 K, x1 = 0.3429 | 952.34 ± 0.72 | 5.71 ± 0.25
308.15 K, x1 = 0.4577 | 982.5 ± 0.66 | 8.22 ± 0.34
308.15 K, x1 = 0.5868 | 1009.21 ± 0.74 | 12.3 ± 0.5
308.15 K, x1 = 0.6791 | 1024.39 ± 0.91 | 14.8 ± 0.6
308.15 K, x1 = 0.805 | 1042.09 ± 1.2 | 18.1 ± 0.7
308.15 K, x1 = 0.9342 | 1057.02 ± 1.4 | 26.2 ± 1
308.15 K, x1 = 1 | 1063.89 ± 1.6 | 34.9 ± 1.3
318.15 K, x1 = 0.0267 | 803.18 ± 1.3 | 1.46 ± 0.07
318.15 K, x1 = 0.0833 | 839 ± 1.1 | 1.87 ± 0.09
318.15 K, x1 = 0.1849 | 888.81 ± 0.94 | 2.75 ± 0.13
318.15 K, x1 = 0.2538 | 916.58 ± 0.84 | 3.4 ± 0.15
318.15 K, x1 = 0.3429 | 945.66 ± 0.75 | 4.49 ± 0.2
318.15 K, x1 = 0.4577 | 976.07 ± 0.69 | 6.43 ± 0.27
318.15 K, x1 = 0.5868 | 1003.01 ± 0.71 | 9.37 ± 0.38
318.15 K, x1 = 0.6791 | 1018.27 ± 0.88 | 11.2 ± 0.5
318.15 K, x1 = 0.805 | 1036.08 ± 1.1 | 13.4 ± 0.5
318.15 K, x1 = 0.9342 | 1051.09 ± 1.4 | 18.7 ± 0.7
318.15 K, x1 = 1 | 1058.02 ± 1.6 | 24.2 ± 0.9
328.15 K, x1 = 0.0267 | 795 ± 1.3 | 1.2 ± 0.06
328.15 K, x1 = 0.0833 | 831.26 ± 1.2 | 1.55 ± 0.07
328.15 K, x1 = 0.1849 | 881.57 ± 0.98 | 2.27 ± 0.11
328.15 K, x1 = 0.2538 | 909.63 ± 0.87 | 2.8 ± 0.1
328.15 K, x1 = 0.3429 | 939 ± 0.78 | 3.6 ± 0.2
328.15 K, x1 = 0.4577 | 969.67 ± 0.72 | 5.1 ± 0.2
328.15 K, x1 = 0.5868 | 996.84 ± 0.7 | 7.3 ± 0.3
328.15 K, x1 = 0.6791 | 1012.18 ± 0.84 | 8.7 ± 0.4
328.15 K, x1 = 0.805 | 1030.11 ± 1.1 | 10.4 ± 0.4
328.15 K, x1 = 0.9342 | 1045.22 ± 1.4 | 14 ± 0.6
328.15 K, x1 = 1 | 1052.19 ± 1.5 | 16.7 ± 0.7
338.15 K, x1 = 0.0267 | 786.6 ± 1.4 | 1 ± 0.05
338.15 K, x1 = 0.0833 | 823.39 ± 1.2 | 1.3 ± 0.06
338.15 K, x1 = 0.1849 | 874.27 ± 1 | 1.9 ± 0.09
338.15 K, x1 = 0.2538 | 902.7 ± 0.9 | 2.35 ± 0.11
338.15 K, x1 = 0.3429 | 932.34 ± 0.81 | 3.01 ± 0.14
338.15 K, x1 = 0.4577 | 963.3 ± 0.75 | 4.18 ± 0.19
338.15 K, x1 = 0.5868 | 990.7 ± 0.73 | 5.89 ± 0.26
338.15 K, x1 = 0.6791 | 1006.14 ± 0.81 | 6.97 ± 0.3
338.15 K, x1 = 0.805 | 1024.2 ± 1.1 | 8.19 ± 0.34
338.15 K, x1 = 0.9342 | 1039.4 ± 1.3 | 10.9 ± 0.4
338.15 K, x1 = 1 | 1046.43 ± 1.5 | 12.7 ± 0.5
348.15 K, x1 = 0.0267 | 777.98 ± 1.4 | 0.848 ± 0.043
348.15 K, x1 = 0.0833 | 815.39 ± 1.3 | 1.1 ± 0.05
348.15 K, x1 = 0.1849 | 866.94 ± 1 | 1.62 ± 0.08
348.15 K, x1 = 0.2538 | 895.73 ± 0.94 | 2 ± 0.09
348.15 K, x1 = 0.3429 | 925.71 ± 0.84 | 2.56 ± 0.12
348.15 K, x1 = 0.4577 | 956.97 ± 0.77 | 3.46 ± 0.16
348.15 K, x1 = 0.5868 | 984.6 ± 0.75 | 4.81 ± 0.22
348.15 K, x1 = 0.6791 | 1000.13 ± 0.78 | 5.64 ± 0.25
348.15 K, x1 = 0.805 | 1018.32 ± 1 | 6.62 ± 0.28
348.15 K, x1 = 0.9342 | 1033.61 ± 1.3 | 8.69 ± 0.36
348.15 K, x1 = 1 | 1040.7 ± 1.4 | 9.98 ± 0.41
